Values after ≈ are worked out from the molar mass of the structure shown. Values joined by “and” are separate entries in the source; they are usually repeats but may differ in a detail not shown here. Equal values may be shown once.
Key:
Assay in all cases: ≥ marks a high value that may be exact or a test limit, other limits are often not marked, values filed in µg/mL are converted to µM
[1] = tested on: Bacillus megaterium CGMCC 1.0459
Bacillus sp. DM-1 = tested on: Bacillus sp. DM-1
[2] = tested on: Bacillus subtilis CGMCC 1.2428
Beauveria sp. = tested on: Beauveria sp.
[3] = tested on: Micrococcus luteus CGMCC 1.0290
Saccharomyces cerevisiae = tested on: Saccharomyces cerevisiae
Escherichia coli BL21AI = tested on: Escherichia coli BL21AI
[4] = tested on: Micrococcus luteus ATCC 10240
[5] = tested on: Bacillus subtilis KCTC 3068
[6] = tested on: Candida albicans KCTC 7965
[7] = tested on: Escherichia coli KCTC 1682
[8] = tested on: Pseudomonas aeruginosa KCTC 1637
[9] = tested on: Salmonella typhimurium KCTC 1926
[10] = tested on: Staphylococcus aureus KCTC 1621
[11] = tested on: Staphylococcus epidermidis KCTC 1917
[12] = tested on: Bacillus subtilis KCTC 1918
[13] = tested on: Candida albicans TIMM 1768
[14] = tested on: Saccharomyces cerevisiae KCTC 7296
[15] = tested on: Staphylococcus epidermidis KCTC 3096
[16] = tested on: Trichosporon beigelii KCTC 7707
Candida albicans = tested on: Candida albicans
[17] = tested on: Escherichia coli DH5alpha
[18] = tested on: Penicillium digitatum PHI-26
[19] = tested on: Saccharomyces cerevisiae FY1679
[20] = tested on: Bacillus megaterium ATCC 19213
[21] = tested on: Bacillus subtilis NBRC 3513
[22] = tested on: Staphylococcus aureus NBRC 12732
[23] = tested on: Staphylococcus epidermidis NBRC 12933

**Q.** With `CC(C)[C@H](NC(=O)[C@H](CS)NC(=O)[C@H](CC(=O)O)NC(=O)CNC(=O)[C@H](CC(N)=O)NC(=O)[C@H](CCCCN)NC(=O)[C@H](CS)NC(=O)[C@H](CCCCN)NC(=O)CNC(=O)CN)C(=O)N[C@@H](CS)C(=O)N[C@@H](CCCN=C(N)N)C(N)=O` [GGKCKNGDCVCR] as the compound, how does the MIC [1] read?
**A.** 8.93 µM (≈ 11.1 µg/mL)

**Q.** And the MIC (Bacillus sp. DM-1)?
**A.** ≥ 33.8 µM

**Q.** What about the MIC [2] of the same compound?
**A.** 10.8 µM (≈ 13.3 µg/mL)

**Q.** What about the MIC (Beauveria sp.) of the same compound?
**A.** 17.7 µM (≈ 21.9 µg/mL)

**Q.** And the MIC [3]?
**A.** 26 µM (≈ 32.2 µg/mL)

**Q.** And the MIC (Saccharomyces cerevisiae)?
**A.** ≥ 52 µM

**Q.** How did the MIC (Escherichia coli BL21AI) turn out when `CC[C@H](C)[C@H](NC(=O)[C@@H]1CCCN1C(=O)[C@H](CCCN=C(N)N)NC(=O)[C@@H]1CCCN1C(=O)[C@H](Cc1cnc[nH]1)NC(=O)[C@H](CO)NC(=O)[C@@H](NC(=O)[C@@H]1CCCN1C(=O)[C@H](CCCN=C(N)N)NC(=O)[C@@H]1CCCN1C(=O)[C@H](CO)NC(=O)[C@H](Cc1ccc(O)cc1)NC(=O)[C@@H]1CCCN1C(=O)[C@H](CCCN=C(N)N)NC(=O)[C@@H]1CCCN1C(=O)[C@H](CCCCN)NC(=O)CN)[C@@H](C)O)C(=O)N[C@@H](CCCN=C(N)N)C(=O)N[C@H](C(N)=O)C(C)C` [GKPRPYSPRPTSHPRPIRV] was run?
**A.** 29.1 µM (≈ 64 µg/mL)

**Q.** What about the MIC [4] of the same compound?
**A.** 0.455 µM (≈ 0.999 µg/mL)

**Q.** `CC(C)C[C@H](NC(=O)[C@H](CC(C)C)NC(=O)[C@H](CCCCN)NC(=O)[C@H](CCCCN)NC(=O)[C@H](CC(C)C)NC(=O)[C@H](CC(C)C)NC(=O)[C@H](CCCCN)NC(=O)[C@H](CC(C)C)NC(=O)[C@H](Cc1c[nH]c2ccccc12)NC(=O)[C@H](CCCCN)NC(=O)[C@H](CCCCN)NC(=O)[C@H](CC(C)C)NC(=O)[C@H](CC(C)C)NC(=O)[C@H](CCCCN)NC(=O)[C@H](CCCCN)NC(=O)[C@H](CC(C)C)NC(=O)[C@@H](N)CCCCN)C(=O)N[C@@H](CCCCN)C(N)=O` [KLKKLLKKWLKLLKKLLK] was tested. Which MIC [5] did it give?
**A.** 4 µM (≈ 9.05 µg/mL)

**Q.** What about the MIC [6] of the same compound?
**A.** 11.3 µM (≈ 25.6 µg/mL)

**Q.** What about the MIC [7] of the same compound?
**A.** 8 µM (≈ 18.1 µg/mL)

**Q.** What about the MIC [8] of the same compound?
**A.** 8 µM (≈ 18.1 µg/mL)

**Q.** What about the MIC [9] of the same compound?
**A.** 4 µM (≈ 9.05 µg/mL)

**Q.** And the MIC [10]?
**A.** 8 µM (≈ 18.1 µg/mL)

**Q.** And the MIC [11]?
**A.** 8 µM (≈ 18.1 µg/mL)

**Q.** How did the MIC [12] turn out when `CC(C)C[C@H](NC(=O)[C@H](CCCCN)NC(=O)[C@H](CCCCN)NC(=O)[C@H](CC(C)C)NC(=O)[C@H](CC(C)C)NC(=O)[C@H](CCCCN)NC(=O)[C@H](CCCCN)NC(=O)[C@H](CC(C)C)NC(=O)[C@H](CC(C)C)NC(=O)[C@@H]1CCCN1C(=O)[C@@H](N)CCCCN)C(N)=O` [KPLLKKLLKKL] was run?
**A.** 6.3 µM (≈ 8.32 µg/mL)

**Q.** What about the MIC [13] of the same compound?
**A.** 25 µM (≈ 33 µg/mL)

**Q.** What about the MIC [8] of the same compound?
**A.** 3.1 µM (≈ 4.09 µg/mL)

**Q.** What about the MIC [14] of the same compound?
**A.** 12.5 µM (≈ 16.5 µg/mL)

**Q.** And the MIC [9]?
**A.** 0.4 µM (≈ 0.528 µg/mL)

**Q.** What about the MIC [15] of the same compound?
**A.** 6.3 µM (≈ 8.32 µg/mL)

**Q.** What about the MIC [16] of the same compound?
**A.** 6.3 µM (≈ 8.32 µg/mL)

**Q.** For `CC(=O)N[C@@H](CCCN=C(N)N)C(=O)N[C@@H](CCCCN)C(=O)N[C@@H](CCCCN)C(=O)N[C@@H](Cc1c[nH]c2ccccc12)C(=O)N[C@@H](Cc1ccccc1)C(=O)N[C@@H](Cc1c[nH]c2ccccc12)C(N)=O` [RKKWFW], which MIC (Candida albicans) is on record?
**A.** 132 µM (≈ 130 µg/mL)

**Q.** And the MIC [17]?
**A.** ≥ 32 µM

**Q.** And the MIC [18]?
**A.** 4 µM and 6 µM

**Q.** What about the MIC [19] of the same compound?
**A.** ≥ 32 µM

**Q.** Which results are given for `CC(C)C[C@H](NC(=O)[C@H](CCCCN)NC(=O)[C@H](CC(C)C)NC(=O)[C@H](CC(C)C)NC(=O)[C@H](Cc1c[nH]c2ccccc12)NC(=O)[C@@H](N)CCCN=C(N)N)C(=O)NCC(=O)N[C@@H](Cc1cnc[nH]1)C(=O)N[C@@H](Cc1cnc[nH]1)C(=O)NCC(=O)N[C@@H](CCCN=C(N)N)C(=O)N[C@@H](C)C(=O)N1CCC[C@H]1C(=O)N1CCC[C@H]1C(=O)O` [RWLLKLGHHGRAPP]?
**A.** MIC [20]: ≥ 64 µM; MIC [21]: ≥ 128 µM; MIC [22]: ≥ 128 µM; MIC [23]: ≥ 128 µM
